# Like-named read-outs stand apart in the source and are kept apart here.
# What was measured:
# [1] = Example 3 stability of 20 mg/mL furosemide Tris-buffered solutions, pH 6.7 to 8.5, ambient temperature; conditions: Tris buffer pH 6.7 to 8.5, ambient temperature, over 48 hours
# Description: Samples were stored at ambient temperature and subsequently analyzed after 24 and 48 hours of storage.
# [2] = unbuffered
# [3] = 8 mg/mL
# [4] = 25 mM Tris, nominal pH 7.0, 2-8° C., three months
# [5] = 25 mM Tris, nominal pH 7.0, 25° C., three months
# [6] = 25 mM Tris, nominal pH 7.0, 40° C., three months
# [7] = 25 mM Tris, nominal pH 7.0, −20° C., three months
# [8] = 25 mM Tris, nominal pH 7.4, 2-8° C., three months
# [9] = 25 mM Tris, nominal pH 7.4, 25° C., three months
# [10] = 25 mM Tris, nominal pH 7.4, 40° C., three months
# [11] = 25 mM Tris, nominal pH 7.4, −20° C., three months
# [12] = 25 mM Tris, nominal pH 8.0, 2-8° C., three months
# [13] = 25 mM Tris, nominal pH 8.0, 25° C., three months
# [14] = 25 mM Tris, nominal pH 8.0, 40° C., three months
# [15] = 25 mM Tris, nominal pH 8.0, −20° C., three months
# [16] = 50 mM Tris, nominal pH 7.0, 2-8° C., three months
# [17] = 50 mM Tris, nominal pH 7.0, 25° C., three months
# [18] = 50 mM Tris, nominal pH 7.0, 40° C., three months
# [19] = 50 mM Tris, nominal pH 7.0, −20° C., three months
# [20] = 50 mM Tris, nominal pH 7.4, 2-8° C., three months
# [21] = 50 mM Tris, nominal pH 7.4, 25° C., three months
# [22] = 50 mM Tris, nominal pH 7.4, 40° C., three months
# [23] = 50 mM Tris, nominal pH 7.4, −20° C., three months
# [24] = 50 mM Tris, nominal pH 8.0, 2-8° C., three months
# [25] = 50 mM Tris, nominal pH 8.0, 25° C., three months
# [26] = 50 mM Tris, nominal pH 8.0, 40° C., three months
# [27] = 50 mM Tris, nominal pH 8.0, −20° C., three months
# [28] = 100 mM Tris, nominal pH 7.0, 2-8° C., three months
# [29] = 100 mM Tris, nominal pH 7.0, 25° C., three months
# [30] = 100 mM Tris, nominal pH 7.0, 40° C., three months
# [31] = 100 mM Tris, nominal pH 7.0, t0
# [32] = 100 mM Tris, nominal pH 7.0, −20° C., three months
# [33] = 100 mM Tris, nominal pH 7.4, 2-8° C., three months
# [34] = 100 mM Tris, nominal pH 7.4, 25° C., three months
# [35] = 100 mM Tris, nominal pH 7.4, 40° C., three months
# [36] = 100 mM Tris, nominal pH 7.4, t0
# [37] = 100 mM Tris, nominal pH 7.4, −20° C., three months
# [38] = 100 mM Tris, nominal pH 8.0, 2-8° C., three months
# [39] = 100 mM Tris, nominal pH 8.0, 25° C., three months
# [40] = 100 mM Tris, nominal pH 8.0, 40° C., three months
# [41] = 100 mM Tris, nominal pH 8.0, t0
# [42] = 100 mM Tris, nominal pH 8.0, −20° C., three months
# [43] = 25, 50, 100 mM Tris, pH 7.0, 7.4, 8.0, −20° C. to 40° C., three months
smiles,measurement,setting,value
"NS(=O)(=O)c1cc(C(=O)O)c(NCc2ccco2)cc1Cl [Furosemide, 4-chloro-2-(furan-2-ylmethylamino)-5-sulfamoyl-benzoic acid]",change in furosemide concentration,[1],No decrease
same,pH deviation from the initial value,[1],≤ 0.1 units
same,solution pH over time,"[2]; 0.1 mg/mL and 8 mg/mL, adjusted to pH 8 to 9 with NaOH and HCl, monitored 72 hours",continually decrease
same,reproducibility of observed pH values,"[2]; 8 mg/mL, pH 8.5, same equivalents of furosemide, acid and base",varied widely
same,Osmolality,[3]; [4],297 mOsm/kg H2O
same,[Furosemide],[3]; [4],8.01 mg/mL
same,pH,[3]; [4],7.08
same,Osmolality,[3]; [5],298 mOsm/kg H2O
same,[Furosemide],[3]; [5],7.91 mg/mL
same,pH,[3]; [5],7.09
same,Osmolality,[3]; [6],296 mOsm/kg H2O
same,[Furosemide],[3]; [6],7.89 mg/mL
same,pH,[3]; [6],7.08
same,Osmolality,"[3]; 25 mM Tris, nominal pH 7.0, t0",293 mOsm/kg H2O
same,[Furosemide],"[3]; 25 mM Tris, nominal pH 7.0, t0",8.09 mg/mL
same,pH,"[3]; 25 mM Tris, nominal pH 7.0, t0",7.02
same,Osmolality,[3]; [7],296 mOsm/kg H2O
same,[Furosemide],[3]; [7],7.91 mg/mL
same,pH,[3]; [7],7.07
same,Osmolality,[3]; [8],291 mOsm/kg H2O
same,[Furosemide],[3]; [8],7.79 mg/mL
same,pH,[3]; [8],7.49
same,Osmolality,[3]; [9],289 mOsm/kg H2O
same,[Furosemide],[3]; [9],7.81 mg/mL
same,pH,[3]; [9],7.47
same,Osmolality,[3]; [10],290 mOsm/kg H2O
same,[Furosemide],[3]; [10],7.90 mg/mL
same,pH,[3]; [10],7.47
same,Osmolality,"[3]; 25 mM Tris, nominal pH 7.4, t0",287 mOsm/kg H2O
same,[Furosemide],"[3]; 25 mM Tris, nominal pH 7.4, t0",8.00 mg/mL
same,pH,"[3]; 25 mM Tris, nominal pH 7.4, t0",7.42
same,Osmolality,[3]; [11],288 mOsm/kg H2O
same,[Furosemide],[3]; [11],7.92 mg/mL
same,pH,[3]; [11],7.47
same,Osmolality,[3]; [12],292 mOsm/kg H2O
same,[Furosemide],[3]; [12],7.97 mg/mL
same,pH,[3]; [12],8.07
same,Osmolality,[3]; [13],294 mOsm/kg H2O
same,[Furosemide],[3]; [13],7.76 mg/mL
same,pH,[3]; [13],8.06
same,Osmolality,[3]; [14],294 mOsm/kg H2O
same,[Furosemide],[3]; [14],7.99 mg/mL
same,pH,[3]; [14],8.07
same,Osmolality,"[3]; 25 mM Tris, nominal pH 8.0, t0",289 mOsm/kg H2O
same,[Furosemide],"[3]; 25 mM Tris, nominal pH 8.0, t0",8.08 mg/mL
same,pH,"[3]; 25 mM Tris, nominal pH 8.0, t0",8.04
same,Osmolality,[3]; [15],291 mOsm/kg H2O
same,[Furosemide],[3]; [15],7.91 mg/mL
same,pH,[3]; [15],8.06
same,Osmolality,[3]; [16],294 mOsm/kg H2O
same,[Furosemide],[3]; [16],8.02 mg/mL
same,pH,[3]; [16],7.10
same,Osmolality,[3]; [17],290 mOsm/kg H2O
same,[Furosemide],[3]; [17],8.07 mg/mL
same,pH,[3]; [17],7.10
same,Osmolality,[3]; [18],295 mOsm/kg H2O
same,[Furosemide],[3]; [18],7.94 mg/mL
same,pH,[3]; [18],7.12
same,Osmolality,"[3]; 50 mM Tris, nominal pH 7.0, t0",290 mOsm/kg H2O
same,[Furosemide],"[3]; 50 mM Tris, nominal pH 7.0, t0",8.06 mg/mL
same,pH,"[3]; 50 mM Tris, nominal pH 7.0, t0",7.04
same,Osmolality,[3]; [19],289 mOsm/kg H2O
same,[Furosemide],[3]; [19],8.12 mg/mL
same,pH,[3]; [19],7.13
same,Osmolality,[3]; [20],293 mOsm/kg H2O
same,[Furosemide],[3]; [20],8.10 mg/mL
same,pH,[3]; [20],7.50
same,Osmolality,[3]; [21],292 mOsm/kg H2O
same,[Furosemide],[3]; [21],7.87 mg/mL
same,pH,[3]; [21],7.49
same,Osmolality,[3]; [22],296 mOsm/kg H2O
same,[Furosemide],[3]; [22],7.97 mg/mL
same,pH,[3]; [22],7.50
same,Osmolality,"[3]; 50 mM Tris, nominal pH 7.4, t0",289 mOsm/kg H2O
same,[Furosemide],"[3]; 50 mM Tris, nominal pH 7.4, t0",8.09 mg/mL
same,pH,"[3]; 50 mM Tris, nominal pH 7.4, t0",7.44
same,Osmolality,[3]; [23],292 mOsm/kg H2O
same,[Furosemide],[3]; [23],7.93 mg/mL
same,pH,[3]; [23],7.52
same,Osmolality,[3]; [24],296 mOsm/kg H2O
same,[Furosemide],[3]; [24],7.84 mg/mL
same,pH,[3]; [24],8.10
same,Osmolality,[3]; [25],296 mOsm/kg H2O
same,[Furosemide],[3]; [25],7.82 mg/mL
same,pH,[3]; [25],8.09
same,Osmolality,[3]; [26],289 mOsm/kg H2O
same,[Furosemide],[3]; [26],7.95 mg/mL
same,pH,[3]; [26],8.10
same,Osmolality,"[3]; 50 mM Tris, nominal pH 8.0, t0",288 mOsm/kg H2O
same,[Furosemide],"[3]; 50 mM Tris, nominal pH 8.0, t0",8.14 mg/mL
same,pH,"[3]; 50 mM Tris, nominal pH 8.0, t0",8.04
same,Osmolality,[3]; [27],289 mOsm/kg H2O
same,[Furosemide],[3]; [27],7.93 mg/mL
same,pH,[3]; [27],8.11
same,Osmolality,[3]; [28],296 mOsm/kg H2O
same,[Furosemide],[3]; [28],7.89 mg/mL
same,pH,[3]; [28],7.00
same,Osmolality,[3]; [29],293 mOsm/kg H2O
same,[Furosemide],[3]; [29],7.79 mg/mL
same,pH,[3]; [29],6.99
same,Osmolality,[3]; [30],294 mOsm/kg H2O
same,[Furosemide],[3]; [30],7.87 mg/mL
same,pH,[3]; [30],6.98
same,Osmolality,[3]; [31],292 mOsm/kg H2O
same,[Furosemide],[3]; [31],8.04 mg/mL
same,pH,[3]; [31],7.02
same,Osmolality,[3]; [32],298 mOsm/kg H2O
same,[Furosemide],[3]; [32],7.90 mg/mL
same,pH,[3]; [32],7.00
same,Osmolality,[3]; [33],301 mOsm/kg H2O
same,[Furosemide],[3]; [33],7.95 mg/mL
same,pH,[3]; [33],7.41
same,Osmolality,[3]; [34],295 mOsm/kg H2O
same,[Furosemide],[3]; [34],7.82 mg/mL
same,pH,[3]; [34],7.41
same,Osmolality,[3]; [35],297 mOsm/kg H2O
same,[Furosemide],[3]; [35],7.90 mg/mL
same,pH,[3]; [35],7.39
same,Osmolality,[3]; [36],297 mOsm/kg H2O
same,[Furosemide],[3]; [36],8.17 mg/mL
same,pH,[3]; [36],7.42
same,Osmolality,[3]; [37],301 mOsm/kg H2O
same,[Furosemide],[3]; [37],7.92 mg/mL
same,pH,[3]; [37],7.42
same,Osmolality,[3]; [38],295 mOsm/kg H2O
same,[Furosemide],[3]; [38],7.91 mg/mL
same,pH,[3]; [38],7.99
same,Osmolality,[3]; [39],288 mOsm/kg H2O
same,[Furosemide],[3]; [39],7.79 mg/mL
same,pH,[3]; [39],7.97
same,Osmolality,[3]; [40],294 mOsm/kg H2O
same,[Furosemide],[3]; [40],7.79 mg/mL
same,pH,[3]; [40],7.98
same,Osmolality,[3]; [41],292 mOsm/kg H2O
same,[Furosemide],[3]; [41],8.08 mg/mL
same,pH,[3]; [41],7.99
same,Osmolality,[3]; [42],296 mOsm/kg H2O
same,[Furosemide],[3]; [42],7.89 mg/mL
same,pH,[3]; [42],7.99
same,change in furosemide concentration,[3]; [43],no change
same,change in osmolality,[3]; [43],no change
same,change in pH,[3]; [43],no change
same,change in visual appearance,[3]; [43],no change
